According to US20250197387A1, “BCL-XL DEGRADERS AND USES THEREOF” (Kymera Therapeutics, Inc., priority 2021, published 2025):
Where two headings read alike, the source gives them in different places.

Assays:
Format in all cases: cell-based
MOLT-4 cells = assay: CTG (CellTiter-Glo) cell viability assay, MOLT-4; conditions: Homo sapiens, 3 day incubation, read-out: CTG Cell Viability Assay - MOLT-4 3 day: Average external-IC50
How it was run: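 MOLT-4 and Caki-2 cells were seeded at 10,000 per well and treated with a 9-point, 1:3 dilution series from 10 μM top concentration (0.2% DMSO). After 3 days at 37 °C, 5% CO2, viability was read by CellTiter-Glo luminescence and IC50 fitted by three-parameter logistic.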

BCL-XL [1] = target: T1, BCL-XL (Homo sapiens, UniProt Q07817); assay: Bcl-xL ELISA degradation in MOLT-4 cells, 6 h; conditions: for DC50: read-out: Bcl-xL ELISA in MOLT-4 degradation 6 h: Mean external-Abs DC50
T1 construct: endogenous in cells; host or cells: MOLT-4
Protocol: The letter codes for BCL-XL DC50 include: A (<0.01 μM); B (0.01-0.1 μM); C (>[…]); D (>0.5-1.0 μM); and E (>1.0 μM). The letter codes for Dmax % include A (>75%); B (50 to 75%); C (<50%).

BCL-XL [2] = target: T1, BCL-XL; assay: BCL-XL degradation assay, western blot in MOLT-4 cells, 16 h; conditions: for DC50: read-out: Bcl-xL WB in MOLT-4 degradation 16 h: Mean external-Abs DC50
How it was run: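 MOLT-4 cells treated with compounds at 0.02-10 μM final for 16 hr at 37° C; lysates analysed by western blot with anti-BCL-xL, beta-actin and GAPDH loading controls, infrared imaging and densitometry; DC50 and Dmax % reported as letter codes.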

[3] = western blot, MOLT-4 cells, 16 h, read-out: Bcl-xL WB in MOLT-4 degradation 16 h: Average Dmax %
[4] = western blot, MOLT-4 cells, 16 h
[5] = MOLT-4, read-out: Bcl-xL WB in MOLT-4 degradation 16 h: Average Dmax %

T1 sequence (Q07817 whole entry): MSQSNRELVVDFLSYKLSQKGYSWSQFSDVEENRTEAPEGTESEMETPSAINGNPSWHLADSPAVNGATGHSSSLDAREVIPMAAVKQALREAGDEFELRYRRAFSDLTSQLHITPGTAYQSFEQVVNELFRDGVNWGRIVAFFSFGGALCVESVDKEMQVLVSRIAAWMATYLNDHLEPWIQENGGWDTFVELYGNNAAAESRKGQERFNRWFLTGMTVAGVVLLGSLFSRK

Row | Compound | IC50 (MOLT-4 cells; MOLT-4, 72 h) [nM] | Dmax (BCL-XL [1]) [%] | DC50 (BCL-XL [1]) [nM] | Dmax (BCL-XL [2]; [3]) [%] | DC50 (BCL-XL [2]; [4]) [nM] | IC50 (MOLT-4 cells; 72 h) [nM] | Dmax (BCL-XL [2]; [5]) [%]
1 | Cc1ncsc1-c1ccc(CNC(=O)[C@@H]2C[C@@H](O)CN2C(=O)[C@H](c2cc(OCCCCCCCCC(=O)N(C)CC#Cc3ccc(OCCCc4ccc(N5CCc6cccc(C(=O)Nc7nc8ccccc8s7)c6C5)nc4C(=O)O)c(F)c3)no2)C(C)C)cc1 [I-172] | 100 to 1000 | 50 to 75 | 10 to 100 | > 75 | < 10 |  | 
2 | Cc1ncsc1-c1ccc([C@H](C)NC(=O)[C@@H]2C[C@@H](O)CN2C(=O)[C@@H](NC(=O)CCCCCCCCC(=O)N2CCN(CC#Cc3ccc(OCCCc4sc(N5CCc6cccc(C(=O)Nc7nc8ccccc8s7)c6C5)nc4C(=O)O)c(F)c3)CC2)C(C)(C)C)cc1 [I-204] | 100 to 1000 | > 75 | 10 to 100 | > 75 | < 10 |  | 
3 | Cc1ncsc1-c1ccc([C@H](C)NC(=O)[C@@H]2C[C@@H](O)CN2C(=O)[C@@H](NC(=O)N2CC(N3CCC(S(=O)(=O)NC(=O)c4nc(N5CCc6cccc(C(=O)Nc7nc8ccccc8s7)c6C5)ccc4-c4cnn(CC5CCCCC5)c4C)CC3)C2)C(C)(C)C)cc1 [I-212] | 100 to 1000 | 50 to 75 | 100 to 500 | > 75 | < 10 |  | 
4 | Cc1ncsc1-c1ccc(CNC(=O)[C@@H]2C[C@@H](O)CN2C(=O)[C@@H](NC(=O)C2(F)CC2)C(C)(C)C)c(OCCCN(C)CC[C@H](CSc2ccccc2)Nc2ccc(S(=O)(=O)NC(=O)c3ccc(N4CCN(CC5=C(c6ccc(Cl)cc6)CCC(C)(C)C5)CC4)cc3)cc2S(=O)(=O)C(F)(F)F)c1 [I-184] | 100 to 1000 | 50 to 75 | 100 to 500 | > 75 | 10 to 100 |  | 
5 | Cc1ncsc1-c1ccc([C@H](C)NC(=O)[C@@H]2C[C@@H](O)CN2C(=O)[C@@H](NC(=O)CCC2CCC(S(=O)(=O)NC(=O)c3nc(N4CCc5cccc(C(=O)Nc6nc7ccccc7s6)c5C4)ccc3-c3cnn(CC4CCCCC4)c3C)CC2)C(C)(C)C)cc1 (stereo partly shown) [I-209] | < 100 | 50 to 75 | 100 to 500 | > 75 | 10 to 100 |  | 
6 | Cc1ncsc1-c1ccc(CNC(=O)[C@@H]2CC(O)CN2C(=O)[C@@H](NC(=O)C2(F)CC2)C(C)(C)C)c(OCCCCCCCCS(=O)(=O)NC(=O)c2nc(N3CCc4cccc(C(=O)Nc5nc6ccccc6s5)c4C3)ccc2-c2cnn(CC34CC5CC(CC(C5)C3)C4)c2C)c1 (stereo partly shown) [I-122] | < 100 |  |  | > 75 | < 10 |  | 
7 | Cc1ncsc1-c1ccc([C@H](CC(=O)N(C)CC(=O)N2CCN(CC[C@H](CSc3ccccc3)Nc3ccc(S(=O)(=O)NC(=O)c4ccc(N5CCN(CC6=C(c7ccc(Cl)cc7)CCC(C)(C)C6)CC5)cc4)cc3S(=O)(=O)C(F)(F)F)CC2)NC(=O)[C@@H]2C[C@@H](O)CN2C(=O)[C@@H](NC(=O)C2(F)CC2)C(C)(C)C)cc1 [I-136] |  |  |  |  | > 1000 | > 3000 | < 50
8 | Cc1cc(N(C)c2ccc(-c3cnn(CC4CCCCC4)c3C)c(C(=O)NCCCCCCOc3cc(-c4scnc4C)ccc3CNC(=O)[C@@H]3C[C@@H](O)CN3C(=O)[C@@H](NC(=O)C3(F)CC3)C(C)(C)C)n2)nnc1Nc1nc2ccccc2s1 [I-203] | 100 to 1000 |  |  | < 50 | > 1000 |  | 
9 | Cc1ncsc1-c1ccc([C@H](C)NC(=O)[C@@H]2C[C@@H](O)CN2C(=O)[C@@H](NC(=O)N2CC3(CN(CCCS(=O)(=O)NC(=O)c4nc(N5CCc6cccc(C(=O)Nc7nc8ccccc8s7)c6C5)ccc4-c4cnn(CC5CCCCC5)c4C)C3)C2)C(C)(C)C)cc1 [I-151] | 1000 to 3000 |  |  | < 50 | 100 to 500 |  | 
10 | Cc1ncsc1-c1ccc(CNC(=O)[C@@H]2C[C@@H](O)CN2C(=O)[C@@H](NC(=O)C2(F)CC2)C(C)(C)C)c(OCCCCCC(=O)NCCOc2ccc(C(=O)Nc3nc4ccccc4s3)c3c2CCN(c2ccc(-c4cnn(CC5CCCCC5)c4C)c(C(=O)O)n2)C3)c1 [I-47] | > 3000 |  |  | < 50 | > 1000 |  | 
11 | Cc1ncsc1-c1ccc([C@H](C)NC(=O)[C@@H]2C[C@@H](O)CN2C(=O)[C@@H](NC(=O)CCCC(=O)NCCOc2ccc(C(=O)Nc3nc4ccccc4s3)c3c2CCN(c2ccc(-c4cnn(CC5CCCCC5)c4C)c(C(=O)O)n2)C3)C(C)(C)C)cc1 [I-43] | 100 to 1000 |  |  | 50 to 75 | 100 to 500 |  | 
12 | Cc1cc(N(C)c2ccc(-c3cnn(CC4CCCCC4)c3C)c(C(=O)NS(=O)(=O)CCCCCOc3cc(-c4scnc4C)ccc3CNC(=O)[C@@H]3C[C@@H](O)CN3C(=O)[C@@H](NC(=O)C3(F)CC3)C(C)(C)C)n2)nnc1Nc1nc2ccccc2s1 [I-188] | > 3000 |  |  | 50 to 75 | > 1000 |  | 
13 | Cc1ncsc1-c1ccc([C@H](C)NC(=O)[C@@H]2C[C@@H](O)CN2C(=O)[C@@H](NC(=O)CCCCCCCS(=O)(=O)NC(=O)c2nc(N3CCc4cccc(C(=O)Nc5nc6ncccc6s5)c4C3)ccc2-c2cnn(CC34CC5CC(CC(C5)C3)C4)c2C)C(C)(C)C)cc1 [I-140] | 100 to 1000 |  |  | > 75 | < 10 |  | 
14 | C#Cc1ccc([C@H](CO)NC(=O)[C@@H]2C[C@@H](O)CN2C(=O)[C@@H](NC(=O)CCCCCC(=O)N2CCN(CC[C@H](CSc3ccccc3)Nc3ccc(S(=O)(=O)NC(=O)c4ccc(N5CCN(CC6=C(c7ccc(Cl)cc7)CCC(C)(C)C6)CC5)cc4)cc3S(=O)(=O)C(F)(F)F)CC2)C(C)(C)C)cc1 [I-116] | < 100 |  |  | > 75 | 10 to 100 |  | 
15 | Cc1ncsc1-c1ccc(CNC(=O)[C@@H]2C[C@@H](O)CN2C(=O)[C@@H](c2cc(N3CC4(CN(CCCC(=O)N(C)CC#Cc5ccc(OCCCc6ccc(N7CCc8cccc(C(=O)Nc9nc%10ccccc%10s9)c8C7)nc6C(=O)O)c(F)c5)C4)C3)no2)C(C)C)cc1 [I-180] | > 3000 |  |  | < 50 | > 1000 |  | 
16 | Cc1ncsc1-c1ccc(CNC(=O)[C@@H]2C[C@@H](O)CN2C(=O)[C@@H](c2cc(N3CC4(CN(C(=O)CCCCC(=O)N(C)CC#Cc5ccc(OCCCc6ccc(N7CCc8cccc(C(=O)Nc9nc%10ccccc%10s9)c8C7)nc6C(=O)O)c(F)c5)C4)C3)no2)C(C)C)cc1 [I-193] | 100 to 1000 |  |  | > 75 | 10 to 100 |  | 
17 | Cc1ncsc1-c1ccc([C@H](C)NC(=O)[C@@H]2C[C@@H](O)CN2C(=O)[C@H](NC(=O)CCCCCCCS(=O)(=O)NC(=O)c2nc(N3CCc4cccc(C(=O)Nc5nc6ccccc6s5)c4C3)ccc2-c2cnn(C)c2C)C(C)(C)C)cc1 [I-145] | > 3000 |  |  | > 75 | 100 to 500 |  | 
18 | Cc1ncsc1-c1ccc(CNC(=O)[C@@H]2C[C@@H](O)CN2C(=O)[C@@H](NC(=O)C2(F)CC2)C(C)(C)C)c(OCCCCNC(=O)c2nc(N3CCc4cccc(C(=O)Nc5nc6ccccc6s5)c4C3)ccc2-c2cnn(CC3CCCCC3)c2C)c1 [I-190] | 100 to 1000 |  |  | 50 to 75 | 500 to 1000 |  | 
19 | Cc1ncsc1-c1ccc([C@@H](CC(=O)N(C)CC(=O)N2CCN(CC[C@H](CSc3ccccc3)Nc3ccc(S(=O)(=O)NC(=O)c4ccc(N5CCN(CC6=C(c7ccc(Cl)cc7)CCC(C)(C)C6)CC5)cc4)cc3S(=O)(=O)C(F)(F)F)CC2)NC(=O)[C@@H]2C[C@@H](O)CN2C(=O)[C@@H](NC(=O)C2(F)CC2)C(C)(C)C)cc1 [I-137] |  |  |  |  | 100 to 500 | 1000 to 3000 | > 75
20 | Cc1ncsc1-c1ccc([C@H](C)NC(=O)[C@@H]2C[C@@H](O)CN2C(=O)[C@@H](NC(=O)CCCCCCCC(=O)NCCOc2ccc(C(=O)Nc3nc4ccccc4s3)c3c2CCN(c2ccc(-c4cnn(CC5CCCCC5)c4C)c(C(=O)O)n2)C3)C(C)(C)C)cc1 [I-45] | 1000 to 3000 |  |  | > 75 | 10 to 100 |  | 
21 | Cc1ncsc1-c1ccc(CNC(=O)[C@@H]2C[C@@H](O)CN2C(=O)[C@@H](NC(=O)C2(F)CC2)C(C)(C)C)c(OCCCNC(=O)c2nc(N3CCc4cccc(C(=O)Nc5nc6ccccc6s5)c4C3)ccc2-c2cnn(CC3CCCCC3)c2C)c1 [I-200] | 100 to 1000 |  |  | 50 to 75 | 100 to 500 |  | 
22 | Cc1cc([C@@H](C(=O)N2C[C@H](O)C[C@H]2C(=O)NCc2ccc(-c3scnc3C)cc2OCC(=O)N2CCN(CC[C@H](CSc3ccccc3)Nc3ccc(S(=O)(=O)NC(=O)c4ccc(N5CCN(CC6=C(c7ccc(Cl)cc7)CCC(C)(C)C6)CC5)cc4)cc3S(=O)(=O)C(F)(F)F)CC2)C(C)C)on1 [I-135] | 100 to 1000 |  |  | > 75 | 10 to 100 |  | 
23 | Cc1cc([C@H](C(=O)N2C[C@H](O)C[C@H]2C(=O)NCc2ccc(-c3scnc3C)cc2OCC(=O)N2CCN(CC[C@H](CSc3ccccc3)Nc3ccc(S(=O)(=O)NC(=O)c4ccc(N5CCN(CC6=C(c7ccc(Cl)cc7)CCC(C)(C)C6)CC5)cc4)cc3S(=O)(=O)C(F)(F)F)CC2)C(C)C)on1 [I-134] | > 3000 |  |  | < 50 | > 1000 |  | 
24 | Cc1ncsc1-c1ccc([C@H](C)NC(=O)[C@@H]2C[C@@H](O)CN2C(=O)[C@@H](NC(=O)CCCCCCC(=O)N2CCN(CC3(C)CCC(c4ccc(Cl)cc4)=C(CN4CCN(c5ccc(C(=O)NS(=O)(=O)c6ccc(NCC78CC9CC(CC(O)(C9)C7)C8)c(S(=O)(=O)C(F)(F)F)c6)cc5)CC4)C3)CC2)C(C)(C)C)cc1 (stereo partly shown) [I-398] | > 3000 |  |  | < 50 | > 1000 |  | 
